The subject of experiment [1] is Wnt/β-catenin signaling (β-catenin activity) in SW480 cell line. Nature of the experiment: Cell-based Wnt agonist screening, TCF luciferase reporter, SW480 (TCF-FL). Particulars: Homo sapiens, % of LiCl (20 mM), 24 h, read-out: Max. Activity (%); for Emax at 30 µM: Con. 30 μM; for Emax at 120 µM: Con. 120 μM; for Emax at 1 µM: Con. 1 μM. On the set-up: species or system human. In a few lines: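 HEK293 and SW480 lines stably carried a 5X TCF firefly luciferase reporter under G418 selection. Cells (8,000–15,000/well, RPMI 1640 with 5% FBS) were grown 24 h, then treated with compound for 24 h. Luciferase activity was expressed as percent of the 20 mM LiCl positive control.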
For orientation: Reporter assays use an easily measured gene product as a stand-in for the process of interest.

Experiment [2] relates to ST-2, a murine bone marrow stromal T cell. Nature of the experiment: Differentiation of ST2 cell line into osteoblasts, alkaline phosphatase activity. It is filed as cell-based. The conditions noted are these: Mus musculus, 96 h; ST-2 cells, 11 μM compound, 4 days; control treated only with ascorbic acid and β-glycerolphosphate = 100; read-out: ALP Activity (% Control). The procedure:
The derivatives synthesized according to the present invention were assayed for their ability to differentiate stem cells into osteoblasts. In this regard, ST-2, a murine bone marrow stromal T cell, was used to measure the activity of bone-specific alkaline phosphatase, a marker of early-stage osteoblast differentiation. In detail, the cell line was cultured in an MEM supplemented with penicillin-streptomycin (100 Units/mL) and heat-inactivated 5% fetal bovine serum under standard culture conditions (5% CO2, 37° C., 100% relative humidity). […] The suspension was diluted with the same medium to adjust the cell count to 5,000˜10,000 cells per well, and was moved in a 96-well microtiter, subsequently. After being incubated for 24 hrs, the cells were treated in a medium containing 50 μg/ml of ascorbic acid and 5 mM of β-glycerolphosphate with various concentrations of the isoxazole derivatives synthesized in Preparation Examples. During incubation for one to nine days, the Alkaline phosphatase activity was analyzed using a […] Assay kit (Promega, U.S.A.) according to the protocol described in the manual provided by the manufacturer. The activities were measured in cells which had been incubated at 11 μM of each of the compounds for 4 days. Data on the activities of the isoxazole derivatives synthesized are given in Tables 44 to 47 and are expressed as percentages of ALP relative to that measured in the control, which was treated only with ascorbic acid and β-glycerolphosphate. ALP activities according to the concentrations of Derivative (1) are depicted in FIG. 5.

`O=C(NCCCn1cncn1)c1cc(N2CCOCC2)on1` [Derivative (162), 5-morpholin-4-yl-isoxazole-3-carboxylic acid (3-[1,2,4]-triazol-1-yl-propyl)-amide]: the Emax at 10 µM in experiment [1] (Con. 10 μM) stood at 30%. Also, in experiment [2], the activity at 11 µM turned out to be 60%.

For `O=C(NCCCn1cncn1)c1cc(-c2ccc[nH]2)on1` [Derivative (159), 5-(1H-pyrrol-2-yl)-isoxazole-3-carboxylic acid (3-[1,2,4]triazol-1-yl-propyl)-amide], in experiment [1], the Emax at 30 µM amounted to 128%. In addition, the activity at 11 µM in experiment [2] came to 130%.

`Cn1cccc1-c1cc(C(=O)NCCCn2ccnc2)no1` [Derivative (149), 5-(1-methyl-1H-pyrrol-2-yl)-isoxazole-3-carboxylic acid (3-imidazol-1-yl-propyl)-amide]: the Emax at 30 µM in experiment [1] turned out to be 70%. The activity at 11 µM in experiment [2] came to 275%.

In the case of `O=C(NCCN1CCN(c2ccc([N+](=O)[O-])cc2)CC1)c1cc(-c2ccco2)on1` [Derivative (180), 5-furan-2-yl-isoxazole-3-carboxylic acid {2-[4-(4-nitrophenyl)-piperazin-1-yl]-ethyl}-amide], the Emax at 120 µM in experiment [1] is 45%. Moreover, the activity at 11 µM in experiment [2] is 181%.

For the compound `O=C(NCCNc1ccccn1)c1cc(-c2ccco2)on1` [Derivative (204), 5-furan-2-yl-isoxazole-3-carboxylic acid [2-(pyridin-2-ylamino)-ethyl]-amide], in experiment [1], the Emax at 120 µM amounted to 369%. The activity at 11 µM in experiment [2] was determined as 150%.

With `COc1ccccc1N1CCN(CCNC(=O)c2cc(-c3ccco3)on2)CC1` [Derivative (193), 5-furan-2-yl-isoxazole-3-carboxylic acid {2-[4-(2-methoxyphenyl)-piperazin-1-yl]-ethyl}-amide], in experiment [1], the Emax at 30 µM was determined as 382%. Also, the activity at 11 µM in experiment [2] came out at 173%.

Consider `O=C(CCNC(=O)c1cc(-c2cccs2)on1)c1ccccc1` [Derivative (206), 5-thiophen-2-yl-isoxazole-3-carboxylic acid (3-oxo-3-phenyl-propyl)-amide], for which the Emax at 120 µM in experiment [1] came out at 584%. Moreover, the activity at 11 µM in experiment [2] turned out to be 772%.

Turning to `O=C(NCCOc1ccccc1)c1cc(-c2cccs2)on1` [Derivative (215), 5-thiophen-2-yl-isoxazole-3-carboxylic acid (2-phenoxy-ethyl)-amide], in experiment [1], the Emax at 30 µM turned out to be 90%. The activity at 11 µM in experiment [2] worked out at 162%.

In the case of `O=C(NCCN1CCNCC1)c1cc(-c2ccco2)on1` [Derivative (176), 5-furan-2-yl-isoxazole-3-carboxylic acid (2-piperazin-1-yl-ethyl)-amide], the Emax at 30 µM in experiment [1] is 93%. In addition, the activity at 11 µM in experiment [2] was 179%.

As to `COc1cc(OC)cc(N2CCN(CCNC(=O)c3cc(-c4ccco4)on3)CC2)c1` [Derivative (188), 5-furan-2-yl-isoxazole-3-carboxylic acid {2-[4-(3,5-dimethoxyphenyl)-piperazin-1-yl]-ethyl}-amide], the Emax at 1 µM in experiment [1] amounted to 200%. The activity at 11 µM in experiment [2] came out at 151%.

As for `COc1ccc(N2CCN(CCNC(=O)c3cc(-c4ccco4)on3)CC2)cc1OC` [Derivative (186), 5-furan-2-yl-isoxazole-3-carboxylic acid {2-[4-(3,4-dimethoxyphenyl)-piperazin-1-yl]-ethyl}-amide], in experiment [1], the Emax at 30 µM was determined as 553%. The activity at 11 µM in experiment [2] amounted to 272%.

For `O=C(NCCCn1cnnn1)c1cc(-c2ccco2)on1` [Derivative (52), 5-furan-2-yl-isoxazole-3-carboxylic acid (3-tetrazol-1-yl-propyl)-amide], in experiment [2], the activity at 11 µM turned out to be 438%.

As for `COc1ccc(NCCNC(=O)c2cc(-c3ccco3)on2)cc1` [Derivative (200), 5-furan-2-yl-isoxazole-3-carboxylic acid [2-(4-methoxy-phenylamino)-ethyl]-amide], the Emax at 30 µM in experiment [1] was determined as 106%. In experiment [2], the activity at 11 µM was 162%.

On to `O=C(NCCn1cnnn1)c1cc(-c2ccco2)on1` [Derivative (43), 5-furan-2-yl-isoxazole-3-carboxylic acid (2-tetrazol-1-yl-ethyl)-amide], for which the Emax at 120 µM in experiment [1] stood at 357%. Also, the activity at 11 µM in experiment [2] amounted to 455%.

Turning to `O=C(NCCn1cccn1)c1cc(-c2ccco2)on1` [Derivative (39), 5-furan-2-yl-isoxazole-3-carboxylic acid (2-pyrazol-1-yl-ethyl)-amide], in experiment [1], the Emax at 30 µM is 344%. Moreover, the activity at 11 µM in experiment [2] worked out at 190%.

`O=C(NCCN1CCN(c2ccccn2)CC1)c1cc(-c2ccco2)on1` [Derivative (182), 5-furan-2-yl-isoxazole-3-carboxylic acid [2-(4-pyridin-2-yl-piperazin-1-yl)-ethyl]-amide]: the Emax at 30 µM in experiment [1] stood at 413%. Besides, in experiment [2], the activity at 11 µM was determined as 887%.

Regarding `O=C(NCCCn1ccnc1)c1cc(-c2cc3ccccc3o2)on1` [Derivative (169), 5-benzofuran-2-yl-isoxazole-3-carboxylic acid (3-imidazol-1-yl-propyl)-amide], the Emax at 1 µM in experiment [1] turned out to be 43%. Further, the activity at 11 µM in experiment [2] turned out to be 83%.

Take `COc1ccc(N2CCN(CCNC(=O)c3cc(-c4ccco4)on3)CC2)c(OC)c1` [Derivative (187), 5-furan-2-yl-isoxazole-3-carboxylic acid {2-[4-(2,4-dimethoxyphenyl)-piperazin-1-yl]-ethyl}-amide]: the Emax at 120 µM in experiment [1] stood at 179%. For the same compound, in experiment [2], the activity at 11 µM amounted to 99%.

Regarding `O=C(NCCc1ccc(O)cc1)c1cc(-c2cccs2)on1` [Derivative (141), 5-thiophen-2-yl-isoxazole-3-carboxylic acid [2-(4-hydroxy-phenyl)-ethyl]-amide], the Emax at 120 µM in experiment [1] is 519%. Further, the activity at 11 µM in experiment [2] is 790%.

As to `O=C(NCCCNc1ccccc1)c1cc(-c2ccco2)on1` [Derivative (201), 5-furan-2-yl-isoxazole-3-carboxylic acid (3-phenylamino-propyl)-amide], the Emax at 1 µM in experiment [1] came to 545%. For the same compound, in experiment [2], the activity at 11 µM is 859%.

With `O=C(NCCn1cncn1)c1cc(-c2ccoc2)on1` [Derivative (154), 5-furan-3-yl-isoxazole-3-carboxylic acid (2-[1,2,4]-triazol-1-yl-ethyl)-amide], in experiment [1], the Emax at 120 µM was 113%. In experiment [2], the activity at 11 µM is 310%.

`CC(C)(C)c1cc(C(=O)NCCCn2ccnc2)no1` [Derivative (167), 5-tert-butyl-3-isoxazole-3-carboxylic acid (3-imidazol-1-yl-propyl)-amide]: the Emax at 120 µM in experiment [1] came to 37%. For the same compound, in experiment [2], the activity at 11 µM was 276%.

With `O=C(NCCNC(=O)c1cc(-c2cccs2)on1)Nc1ccccc1` [Derivative (211), 5-thiophen-2-yl-isoxazole-3-carboxylic acid [2-(3-phenyl-urido)-ethyl]-amide], in experiment [1], the Emax at 30 µM is 158%. Besides, in experiment [2], the activity at 11 µM came to 204%.

Consider `O=C(CNC(=O)c1cc(-c2ccco2)on1)Nc1ccccn1` [Derivative (208), 5-furan-2-yl-isoxazole-3-carboxylic acid (pyridin-2-ylcarbamoylmethyl)-amide], for which the Emax at 30 µM in experiment [1] turned out to be 110%. The activity at 11 µM in experiment [2] was 57%.

For `Cc1nccn1CCCNC(=O)c1cc(-c2ccco2)on1` [Derivative (44), 5-furan-2-yl-isoxazole-3-carboxylic acid [3-(2-methyl-imidazol-1-yl)-propyl]-amide], the Emax at 120 µM in experiment [1] is 657%. The activity at 11 µM in experiment [2] was 997%.

As to `O=C(NCCN1CCOCC1)c1cc(-c2ccco2)on1` [Derivative (175), 5-furan-2-yl-isoxazole-3-carboxylic acid (2-morpholin-4-yl-ethyl)-amide], in experiment [1], the Emax at 1 µM came out at 383%. Besides, the activity at 11 µM in experiment [2] was determined as 767%.

Regarding `COc1cccc(N2CCN(CCNC(=O)c3cc(-c4ccco4)on3)CC2)c1` [Derivative (185), 5-furan-2-yl-isoxazole-3-carboxylic acid {2-[4-(3-methoxyphenyl)-piperazin-1-yl]-ethyl}-amide], the Emax at 30 µM in experiment [1] came to 810%. Besides, in experiment [2], the activity at 11 µM came to 714%.

On to `CN(CCCNC(=O)c1cc(-c2ccco2)on1)c1ccccc1` [Derivative (203), 5-furan-2-yl-isoxazole-3-carboxylic acid [3-(methyl-phenyl-amino)-propyl]-amide], for which the Emax at 30 µM in experiment [1] turned out to be 851%. Besides, in experiment [2], the activity at 11 µM was 260%.

`O=C(CNC(=O)c1cc(-c2ccco2)on1)Nc1ccccc1` [Derivative (207), 5-furan-2-yl-isoxazole-3-carboxylic acid phenylcarbamoylmethyl-amide]: in experiment [1], the Emax at 120 µM worked out at 34%. Also, in experiment [2], the activity at 11 µM was 47%.

Values taken from US7915297B2, “Isoxazole derivatives and use thereof” (SK Holdings Co., Ltd., priority 2005, dated 2011).
